Inhibition and IC50 data for two compounds are collected here from patent US8008510B2, “Metalloprotein inhibitors” (The Regents of the University of California, priority 2004, dated 2011).

This experiment addresses MMP-3 (Homo sapiens, UniProt P08254). The experiment in a line: MMP-3 fluorescence-based inhibition assay.

Broadly, the inhibition is the drop in the measured response relative to a control, in per cent. A word on the IC50: it is the point on the concentration scale where inhibition reaches its midpoint.

Sequence of MMP-3 (P08254 100-272 limits assumed): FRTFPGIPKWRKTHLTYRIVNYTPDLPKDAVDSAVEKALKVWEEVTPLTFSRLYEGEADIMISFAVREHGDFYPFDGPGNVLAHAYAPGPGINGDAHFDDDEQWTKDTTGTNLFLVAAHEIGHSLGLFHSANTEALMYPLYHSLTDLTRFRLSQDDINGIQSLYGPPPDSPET

Consider `O=C(NCc1ccc(-c2ccccc2)cc1)c1cc(=O)c(O)co1` [CA1], for which the inhibition at 50 µM (read-out: inhibition of MMP-3) stood at 25%. `Cc1cc(=O)c(O)c(C(=O)Nc2ccc(-c3ccccc3)cc2)o1` [AM3] displayed an IC50 of 90 µM.
